Data taken from the NIST ThermoML archive (doi:10.1021/acs.jced.8b00554).

How the values were obtained:
[1] = Liquid, Vibrating tube method
[2] = refractive index (Na D-line) (dimensionless); settings: 101.33 kPa, Liquid, Standard Abbe refractometry

CCCCCCCC [octane]
[1]
Settings	mass density [kg/m3]
313.15 K, 100 kPa	686.05
313.15 K, 1030 kPa	687.19
313.15 K, 1950 kPa	688.13
313.15 K, 2950 kPa	689.08
313.15 K, 3960 kPa	690
313.15 K, 4960 kPa	690.87
313.15 K, 5970 kPa	691.78
313.15 K, 6970 kPa	692.65
313.15 K, 7980 kPa	693.54
313.15 K, 8980 kPa	694.38
313.15 K, 9990 kPa	695.26
313.15 K, 11030 kPa	696.11
313.15 K, 11950 kPa	696.94
313.15 K, 12950 kPa	697.75
313.15 K, 13960 kPa	698.56
313.15 K, 14960 kPa	699.37
313.15 K, 15970 kPa	700.18
313.15 K, 16970 kPa	700.99
313.15 K, 17980 kPa	701.77
313.15 K, 18980 kPa	702.53
313.15 K, 19990 kPa	703.31
323.15 K, 100 kPa	677.56
323.15 K, 950 kPa	678.99
323.15 K, 1960 kPa	680.02
323.15 K, 2970 kPa	681.01
323.15 K, 3980 kPa	681.99
323.15 K, 4980 kPa	682.97
323.15 K, 5980 kPa	683.91
323.15 K, 6990 kPa	684.86
323.15 K, 7990 kPa	685.78
323.15 K, 9000 kPa	686.69
323.15 K, 10090 kPa	687.59
323.15 K, 10950 kPa	688.51
323.15 K, 11960 kPa	689.4
323.15 K, 12970 kPa	690.29
323.15 K, 13980 kPa	691.16
323.15 K, 14980 kPa	691.98
323.15 K, 15980 kPa	692.86
323.15 K, 16990 kPa	693.68
323.15 K, 17990 kPa	694.53
323.15 K, 19000 kPa	695.33
323.15 K, 20090 kPa	696.18
333.15 K, 100 kPa	669.13
333.15 K, 1050 kPa	670.67
333.15 K, 1940 kPa	671.75
333.15 K, 2950 kPa	672.81
333.15 K, 3950 kPa	673.87
333.15 K, 4960 kPa	674.91
333.15 K, 5960 kPa	675.95
333.15 K, 6960 kPa	676.93
333.15 K, 7990 kPa	677.93
333.15 K, 8990 kPa	678.93
333.15 K, 10000 kPa	679.89
333.15 K, 11050 kPa	680.86
333.15 K, 11940 kPa	681.81
333.15 K, 12950 kPa	682.71
333.15 K, 13950 kPa	683.67
333.15 K, 14960 kPa	684.58
333.15 K, 15960 kPa	685.48
333.15 K, 16960 kPa	686.34
333.15 K, 17990 kPa	687.26
333.15 K, 18990 kPa	688.1
333.15 K, 20000 kPa	688.97
343.15 K, 100 kPa	661.02
343.15 K, 960 kPa	662.23
343.15 K, 1970 kPa	663.39
343.15 K, 2980 kPa	664.55
343.15 K, 3980 kPa	665.65
343.15 K, 4990 kPa	666.79
343.15 K, 5990 kPa	667.86
343.15 K, 7000 kPa	668.94
343.15 K, 8010 kPa	670.02
343.15 K, 9010 kPa	671.05
343.15 K, 10100 kPa	672.12
343.15 K, 10960 kPa	673.13
343.15 K, 11970 kPa	674.15
343.15 K, 12980 kPa	675.12
343.15 K, 13980 kPa	676.13
343.15 K, 14990 kPa	677.1
343.15 K, 15990 kPa	678.03
343.15 K, 17000 kPa	678.97
343.15 K, 18010 kPa	679.93
343.15 K, 19010 kPa	680.86
343.15 K, 20100 kPa	681.78
353.15 K, 100 kPa	652.22
353.15 K, 1060 kPa	653.65
353.15 K, 1940 kPa	654.91
353.15 K, 2950 kPa	656.12
353.15 K, 3960 kPa	657.35
353.15 K, 4960 kPa	658.54
353.15 K, 5960 kPa	659.71
353.15 K, 6970 kPa	660.9
353.15 K, 7980 kPa	662.03
353.15 K, 8980 kPa	663.17
353.15 K, 9980 kPa	664.24
353.15 K, 11060 kPa	665.33
353.15 K, 11940 kPa	666.44
353.15 K, 12950 kPa	667.49
353.15 K, 13960 kPa	668.52
353.15 K, 14960 kPa	669.56
353.15 K, 15960 kPa	670.6
353.15 K, 16970 kPa	671.6
353.15 K, 17980 kPa	672.57
353.15 K, 18980 kPa	673.56
353.15 K, 19980 kPa	674.52
363.15 K, 100 kPa	643.71
363.15 K, 950 kPa	644.91
363.15 K, 1960 kPa	646.3
363.15 K, 2970 kPa	647.63
363.15 K, 3970 kPa	648.92
363.15 K, 4980 kPa	650.23
363.15 K, 5980 kPa	651.49
363.15 K, 6990 kPa	652.73
363.15 K, 7990 kPa	653.97
363.15 K, 8990 kPa	655.15
363.15 K, 10090 kPa	656.34
363.15 K, 10950 kPa	657.54
363.15 K, 11960 kPa	658.66
363.15 K, 12970 kPa	659.79
363.15 K, 13970 kPa	660.94
363.15 K, 14980 kPa	662.01
363.15 K, 15980 kPa	663.09
363.15 K, 16990 kPa	664.19
363.15 K, 17990 kPa	665.21
363.15 K, 18990 kPa	666.28
363.15 K, 20090 kPa	667.28

Settings	refractive index
[2], 298.15 K	1.398

CCCCCCCCC [nonane]
[1]
Settings	mass density [kg/m3]
313.15 K, 100 kPa	701.49
313.15 K, 1050 kPa	702.34
313.15 K, 2030 kPa	703.25
313.15 K, 3030 kPa	704.17
313.15 K, 4040 kPa	705.07
313.15 K, 5050 kPa	705.96
313.15 K, 5980 kPa	706.78
313.15 K, 7050 kPa	707.7
313.15 K, 8060 kPa	708.56
313.15 K, 9060 kPa	709.4
313.15 K, 10070 kPa	710.23
313.15 K, 11050 kPa	710.92
313.15 K, 12030 kPa	711.71
313.15 K, 13030 kPa	712.51
313.15 K, 14040 kPa	713.3
313.15 K, 15050 kPa	714.09
313.15 K, 15980 kPa	714.8
313.15 K, 17050 kPa	715.61
313.15 K, 18060 kPa	716.36
313.15 K, 19060 kPa	717.1
313.15 K, 20070 kPa	717.83
323.15 K, 100 kPa	693.34
323.15 K, 1030 kPa	694.03
323.15 K, 2040 kPa	695.02
323.15 K, 3030 kPa	695.98
323.15 K, 4040 kPa	696.94
323.15 K, 5040 kPa	697.88
323.15 K, 6040 kPa	698.81
323.15 K, 7050 kPa	699.74
323.15 K, 8060 kPa	700.65
323.15 K, 9060 kPa	701.55
323.15 K, 10060 kPa	702.43
323.15 K, 11030 kPa	703.16
323.15 K, 12040 kPa	704.02
323.15 K, 13030 kPa	704.87
323.15 K, 14040 kPa	705.71
323.15 K, 15040 kPa	706.54
323.15 K, 16040 kPa	707.35
323.15 K, 17050 kPa	708.16
323.15 K, 18060 kPa	708.96
323.15 K, 19060 kPa	709.74
323.15 K, 20060 kPa	710.52
333.15 K, 100 kPa	685.03
333.15 K, 1030 kPa	685.98
333.15 K, 2020 kPa	687
333.15 K, 3020 kPa	688.03
333.15 K, 4020 kPa	689.05
333.15 K, 5030 kPa	690.05
333.15 K, 6030 kPa	691.03
333.15 K, 7030 kPa	692
333.15 K, 8040 kPa	692.97
333.15 K, 9040 kPa	693.91
333.15 K, 10050 kPa	694.85
333.15 K, 11030 kPa	695.64
333.15 K, 12020 kPa	696.54
333.15 K, 13020 kPa	697.44
333.15 K, 14020 kPa	698.32
333.15 K, 15030 kPa	699.2
333.15 K, 16030 kPa	700.06
333.15 K, 17030 kPa	700.91
333.15 K, 18040 kPa	701.76
333.15 K, 19040 kPa	702.59
333.15 K, 20050 kPa	703.42
343.15 K, 100 kPa	677.18
343.15 K, 1000 kPa	678.15
343.15 K, 2010 kPa	679.25
343.15 K, 3010 kPa	680.33
343.15 K, 4020 kPa	681.41
343.15 K, 5030 kPa	682.46
343.15 K, 6030 kPa	683.5
343.15 K, 7040 kPa	684.52
343.15 K, 8040 kPa	685.53
343.15 K, 9050 kPa	686.53
343.15 K, 10050 kPa	687.51
343.15 K, 11000 kPa	688.33
343.15 K, 12010 kPa	689.29
343.15 K, 13010 kPa	690.24
343.15 K, 14020 kPa	691.18
343.15 K, 15030 kPa	692.1
343.15 K, 16030 kPa	693.01
343.15 K, 17040 kPa	693.91
343.15 K, 18040 kPa	694.8
343.15 K, 19050 kPa	695.68
343.15 K, 20050 kPa	696.54
353.15 K, 100 kPa	669.55
353.15 K, 1000 kPa	670.57
353.15 K, 2000 kPa	671.72
353.15 K, 3010 kPa	672.85
353.15 K, 4010 kPa	673.98
353.15 K, 5020 kPa	675.08
353.15 K, 6020 kPa	676.17
353.15 K, 7020 kPa	677.25
353.15 K, 8030 kPa	678.31
353.15 K, 9030 kPa	679.35
353.15 K, 10040 kPa	680.39
353.15 K, 11000 kPa	681.26
353.15 K, 12000 kPa	682.26
353.15 K, 13010 kPa	683.26
353.15 K, 14010 kPa	684.23
353.15 K, 15020 kPa	685.21
353.15 K, 16020 kPa	686.16
353.15 K, 17020 kPa	687.1
353.15 K, 18030 kPa	688.03
353.15 K, 19030 kPa	688.95
353.15 K, 20040 kPa	689.86
363.15 K, 100 kPa	662.05
363.15 K, 990 kPa	663.2
363.15 K, 2000 kPa	664.41
363.15 K, 3010 kPa	665.6
363.15 K, 4010 kPa	666.77
363.15 K, 5020 kPa	667.93
363.15 K, 6020 kPa	669.07
363.15 K, 7030 kPa	670.19
363.15 K, 8030 kPa	671.3
363.15 K, 9040 kPa	672.4
363.15 K, 10040 kPa	673.47
363.15 K, 10990 kPa	674.38
363.15 K, 12000 kPa	675.44
363.15 K, 13010 kPa	676.48
363.15 K, 14010 kPa	677.5
363.15 K, 15020 kPa	678.52
363.15 K, 16020 kPa	679.51
363.15 K, 17030 kPa	680.5
363.15 K, 18030 kPa	681.47
363.15 K, 19040 kPa	682.43
363.15 K, 20040 kPa	683.38

Settings	refractive index
[2], 293.15 K	1.4056
